How the values were obtained:
[1] = FDO stability to stomach pH; format: physicochemical; conditions: 2:1:1 ethanol:propylene glycol:water at pH 1 (HCl); HPLC and UV absorption
Procedure: (§1) Three key parameters were measured prior to starting the study: (a) FDO stability under the diet making conditions (70° C. for 3 hours under vacuum), (b) FDO stability to stomach pH (approximately pH 1), and (c) FDO absorbed intact into the blood stream of the mouse. The following were the outcomes: • (a) The FDO was mixed with ground Purina Mouse Chow® and heated to 70° C. for 3 hours under vacuum; the FDO was then extracted from the chow with ethanol and assayed by HPLC and by UV absorption spectrum. […]

[2] = FDO absorbed intact into the blood stream of the mouse; format: in vivo; conditions: Skh mice fed chow containing 0.01% 14C-FDO for 14 days; blood analyzed by HPLC
Procedure: as §1

[3] = FDO content of FDO-containing diets during storage over the study; format: physicochemical; conditions: diets stored at 4° C., sampled at 3 month intervals over approximately two years; UV absorption
Procedure: (§2) The FDO-containing and control diets were prepared by Teklad (Madison, Wis.) by addition of FDO to standard Purina Mouse Chow®. Diets were stored at 4° C. in sealed containers until used. The levels of FDO in the diets were 0%, 0.01%, and 0.1%.
At 3 month intervals throughout the study, samples of the FDO-containing Purina Mouse Chow® were ground and extracted with ethanol; the ethanol was then analyzed for FDO content by UV absorption (obtaining the absorption spectrum versus the FDO standard and then determining level of FDO at the peak absorption).

[4] = system: female albino Skh:HR-1 hairless mice; assay: Effect of dietary FDO on mouse average life span (survival); format: in vivo; conditions: for Mean survival: control 553 days
Procedure: Forty eight (48) female albino Skh:HR-1 hairless mice were obtained from Charles River Laboratories (Portage, Mich.). At the start of the study, the mice were approximately 20 weeks old. The mice were housed four to a standard plastic cage and given feed and water ad libitum. Sixteen (16) mice were placed on each of the three test diets described below.
The 2-Furildioxime (FDO) was obtained from Aldrich Chemical Co. (Milwaukee, Wis.).
as §2
Throughout the study, mouse weights, food consumption, and date of death were recorded.

[5] = FDO stability under the diet making conditions; format: physicochemical; conditions: mixed with ground Purina Mouse Chow, 70° C. for 3 hours under vacuum; ethanol extract, HPLC and UV absorption
Procedure: as §1

[6] = 0.01% and 0.1% FDO diets vs. 0% control diet

SMILES: ON=C(C(=NO)c1ccco1)c1ccco1 [FDO, 2-furildioxime]
- loss of FDO at stomach pH [1]: no detectable loss
- FDO in blood after dietary administration [2]: Intact FDO was detected
- loss of FDO from the diets [3]: no detectable loss
- % Increase in Survival Time ([4]; 0.01% FDO diet vs. control diet, p = 0.05): 14%
- Mean survival ([4]; 0.01% FDO diet, p = 0.05 vs. control): 632 days
- mouse body weights [4, 6]: not different
- mouse food consumption [4, 6]: not different
- % Increase in Survival Time ([4]; 0.1% FDO diet vs. control diet, p = 0.02): 20%
- Mean survival ([4]; 0.1% FDO diet, p = 0.02 vs. control): 664 days
- death from all causes ([4]; FDO-fed mice): delayed to a later date
- differences in the causes of death among the diet groups ([4]; autopsy, 0.01% and 0.1% FDO diets vs. control): not any differences
- life span relative to the control diet ([4]; both FDO diets (0.01% and 0.1%), statistical analysis): significantly increased
- appearance or behavioral differences ([4]; daily observation, 0.01% and 0.1% FDO diets vs. control): No differences
- loss of FDO under diet making conditions [5]: no detectable loss

Reference: US20050020672A1, “Methods of extending mammalian life span via iron chelating compounds that reduce free radical damage in mammals” (priority 1994, published 2005)
